Where a SMILES comes first, the peptide text is derived from it. Bridges are numbered along the chain shown (N, C = ends). [ ]: non-standard residue; d: D form. dPhe(4-CF3) = N[C@H](Cc1ccc(C(F)(F)F)cc1)C(=O)O; dTrp(6-F) = N[C@H](Cc1c[nH]c2cc(F)ccc12)C(=O)O; R5 = C=CCCC[C@@](C)(N)C(=O)O; S5 = C=CCCC[C@](C)(N)C(=O)O
Key:
[1] = tested on: CellSensor p53RE-bla HCT116 cell line (p53 response element reporter); experiment: HCT116 p53 β-lactamase reporter gene functional assay; assay type: cell-based, human; settings: 10 μM peptide; unprocessed vs DμVS-processed cells
Experimental: The CellSensor™ p53RE‐bla HCT116 cell line (K1640, Thermo Scientific) was used for functional characterization of p53 pathway activation by DμVS‐delivered peptides. Assay was performed similarly to how previously described.[17] These cells harbor a stable integration of a β‐lactamase reporter gene under control of the p53 response element. Cells were maintained in McCoy's 5A medium (16600‐082, Invitrogen) with 10% dialyzed FBS (26400‐036, Invitrogen), blasticidin (R210‐01, Invitrogen), and penicillin/streptomycin according to the manufacturer's protocol. Peptides were synthesized as previously described.[16], [17] To set up the assay, peptides were first pre‐plated in assay medium (Opti‐MEM supplemented with 0.1 mM non‐essential amino acids [11140‐050, Invitrogen], 1 mM sodium pyruvate [11360‐070, Invitrogen], and penicillin/streptomycin) without FBS on 384‐well plates (Corning 3764) or 96‐well plates (Corning 3603) using a HP D300E digital dispenser (20 μl 384‐well, 50 μl 96‐well). Maximum DMSO concentration used was 0.3% v/v. Cells were washed, resuspended with 0.05% v/v trypsin, spun down for 5 min at 300× g, and resuspended in PBS. Cells were 70‐μm strained and then brought to a final cell density of 3 × 10^6 cells/ml in PBS. Cell suspension was connected to 15 mL P‐CAP of the DμVS system, and 2 mL were used to prime the system. DμVS process was then initiated at 120 psi and 20 μL (384‐well) or 50 μL (96‐well) were dispensed to microplate in wells that were pre‐defined in the Telios software and pre‐loaded with peptides 2× in assay medium. Unprocessed cells were added to the microplate in parallel. After DμVS processing/mixing with peptide, cells were incubated at 37°C for 4 h. β‐lactamase activity was detected using the ToxBLAzer loading kit (K1095, Invitrogen) according to the manufacturer's protocol. Plates were measured using the PHERAstar FSX microplate reader with a LiveBlazer optic module (1400‐G3M‐FI‐410‐530‐460, BMG Labtech). Maximum p53 activity was defined as the β‐lactamase activity induced by 30 μM MP‐081 (meanpos). Percent activation of individual samples (S) was calculated using the following equation, where meanveh represents the mean of vehicle controls: % activation=S−meanveh/meanpos−meanveh×100
Z‐factors were calculated using the formula: Z^′=1−3σpos+3σveh/meanpos−meanveh
Meanpos and σ pos represent the mean and standard deviation, respectively, of the raw ratiometric values for 30 μM MP‐081 and meanveh and σ veh represent the mean and standard deviation of the vehicle controls. Dose–response data EC50 values were determined using the “[Agonist] versus response—Variable slope (four parameters)” algorithm in GraphPad Prism. Single concentration data for expanded peptide set were analyzed using unpaired T‐tests with false discovery rate (FDR, 1.00%) multiple comparisons correction using the two‐stage step‐up (Benjamini, Krieger, and Yekutieli) method. Data were accumulated from at least five independent experimental runs.

MDM2 (1–125) protein = biological target: T1, MDM2 (1–125) protein (Homo sapiens, UniProt Q00987); experiment: MDM2 binding assay (fluorescence anisotropy competition); settings: competition vs 50 nM FAM-labeled 12/1 peptide, 250 nM MDM2; heat map of Figure 5a
T1 construct: made in house
T1 sequence (Q00987 1-125): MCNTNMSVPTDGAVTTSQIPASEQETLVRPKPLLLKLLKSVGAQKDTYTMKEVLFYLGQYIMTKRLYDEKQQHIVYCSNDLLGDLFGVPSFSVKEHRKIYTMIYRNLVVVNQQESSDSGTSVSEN
Experimental: MDM2 protein generation and binding studies were performed as described.[17] […] The competing molecules were then titrated against the complex of the FAM‐labeled peptide and protein. Curve‐fitting was carried out using Prism 4.0 (GraphPad) to determine K D values. Readings were carried out with an Envision Multilabel Reader (PerkinElmer). […] All titrations were carried out in triplicate.

- Kd (MDM2 (1–125) protein): 1.7 nM
Structure (SMILES): CC(C)C[C@H]1NC(=O)[C@@H](CC(C)C)NC(=O)[C@@](C)(NC(=O)[C@@H](CCC(=O)O)NC(=O)[C@@H](Cc2ccc(C(F)(F)F)cc2)NC(=O)[C@@H](CC(N)=O)NC(=O)[C@@H](C)NC(=O)[C@@H](Cc2ccc(O)cc2)NC(=O)[C@@H](Cc2c[nH]c3cc(F)ccc23)NC(=O)[C@@H](C)NC(=O)[C@H](N)[C@H](C)O)CCCC=CCCC[C@](C)(C(N)=O)NC1=O [MP-313, H-DThr-DAla-DTrp(6-F)-DTyr-DAla-DAsn-DPhe(4-CF3)-DGlu-S5*-DLeu-DLeu-R5*-NH2] (H-[dT][dA][dTrp(6-F)][dY][dA][dN][dPhe(4-CF3)][dE][S5][dL][dL][R5]-NH2; staple 9-12)
- p53 activation at 10 μM with and without DμVS [1]: no p53 reporter activity improvement
